# How the values were obtained:
# [1] = system: iCasp9-ΔCD19-transduced MSCs; assay: In vivo killing studies of iCasp9-ΔCD19 MSCs in murine model; set-up: species or system SCID mice
# Method: All mouse experiments were performed in accordance with the Baylor College of Medicine animal husbandry guidelines. To assess the persistence of modified MSCs in vivo, a SCID mouse model was used in conjunction with an in vivo imaging system. MSCs were transduced with retroviruses coding for the enhanced green fluorescent protein-firefly luciferase (eGFP-FFLuc) gene alone or together with the iCasp9-ΔCD19 gene. Cells were sorted for eGFP positivity by fluorescence activated cell sorting using a MoFlo flow cytometer (Beckman Coulter, Fullerton, Calif.). Doubly transduced cells were also stained with PE-conjugated anti-CD19 and sorted for PE-positivity. SCID mice (8-10 weeks old) were injected subcutaneously with 5×10^5 MSCs with and without iCasp9-ΔCD19 in opposite flanks. […] For in vivo imaging of MSCs expressing eGFP-FFLuc, mice were injected intraperitoneally with D-luciferin (150 mg/kg) and analyzed using the Xenogen-IVIS Imaging System. Total luminescence (a measurement proportional to the total labeled MSCs deposited) at each time point was calculated by automatically defining regions-of-interest (ROIs) over the MSC implantation sites. These ROIs included all areas with luminescence signals at least 5% above background. Total photon counts were integrated for each ROI and an average value calculated. […]
# [2] = system: 293 cells; assay: SEAP assay: iMC (tandem FKBP) scaffold plus FRBL2-Caspase-9; format: cell-based; details: tandem FKBPs (iMC) present
# Method: FIGS. 16A and 16B are line graphs showing that tandem FKBP scaffold mediates FRBL2. Caspase activation in the presence of rapalogs. FIG. 16A. HEK-293 cells were transfected with 1 μg each of SRα-SEAP reporter plasmid, Δmyr.iMC.2A-anti-CD19.CAR.CD3ζ (pBP0608), and FRBL2. Caspase-9 (pBP0467). […] After ON incubation, cell supernatants were assayed for SEAP activity, as previously described. FIG. 16B. Similar to the experiment described in (FIG. 16A), except that cells were transfected with a membrane-localized (myristoylated) iMC.2A-CD19.CAR.CD3ζ (pBP0609), instead of non-myristoylated Δmyr.iMC.2A-CD19.CAR.CD3ζ (pBP0608).
# In a second test for rapalog-mediated scaffold-based activation of Caspase-9, 293 cells were transiently transfected with SRα-SEAP reporter plasmid, plus myristoylated or non-myristoylated inducible iMC co-expressed with 1st generation anti-CD19 CAR, plus FRBL2-fused Caspase-9 (plasmid pBP0467) (FIG. 16).
# [3] = system: iRmC9 T cells (pBP1327, GFP-Fluc); assay: In vivo apoptotic activation in NSG mice, iRmC9 T cells (IVIS imaging, spleen FACS); set-up: species or system mouse; details: 5 mg/kg rimiducid or 10 mg/kg rapamycin i.p.
# Method: PBMCs from donor 676 were activated and co-transduced with one of the off-switches and GFP-Fluc retroviruses. Eleven days after transduction, cells were analyzed for transduction efficiency with GFP and anti-CD3/anti-CD19 antibodies (FIG. 109A). […] The CD19^+ MFI for the different T cell populations were: iC9=15.07, iRC9=14.38, and iRmC9=13.39. The cells were collected, counted, washed, and resuspended at 1×10^6 cells in 100 μl PBS for each tail vein mouse injection (Table 10) (time=−18 hr). […] IVIS imaging was performed at −14, 0, 5, 24 and 29 hours. Mice were sacrificed and spleens were collected for FACS analysis with hCD3, hCD19 and mCD45 antibodies. […] The higher percentage of remaining iRmC9 T cells observed may be due to an artifact of normalizing the no drug group.
# PBMCs from donor 676 were activated and co-transduced with retroviruses encoding the pBP0220, 1310, 1327 vectors and the GFP-Fluc plasmid. (FIG. 109A) Eleven days post transduction, the cells were analyzed for CD19 and GFP transduction efficiency prior to injection into mice. (FIGS. 109B & C) NSG mice were injected i.v. with 107 T cells co-transduced with GFP-Fluc per mouse and suicide drugs were injected i.p. the next day. Bioluminescence of cells was assessed at −14, 0, 5, 24, and 29 hours post-drug administration. (FIG. 109D) At 29-h post-drug treatment, mice were euthanized and spleens were collected for flow cytometry analysis with antibodies to hCD3, […], and mCD45
Structure (SMILES),proportion of surviving iCasp9-positive cells after one week ([1]; qPCR iCasp9/eGFP copy ratio),killing / depletion of iCasp9-positive cells in vivo ([1]; two i.p. injections of 50 μg CID 24 h apart),activation of FRBL2-Caspase-9 [2],"iRmC9 T cells remained in splenocytes (normalized to no drug group) ([3]; spleen FACS, FIG. 109D)","removal of iRmC9 T cells (IVIS imaging) ([3]; NSG mice, FIGS. 109B & C)"
CC[C@H](C(=O)N1CCCC[C@H]1C(=O)O[C@H](CCc1ccc(OC)c(OC)c1)c1cccc(OCC(=O)NCC(CNC(=O)COc2cccc([C@@H](CCc3ccc(OC)c(OC)c3)OC(=O)[C@@H]3CCCCN3C(=O)[C@@H](CC)c3cc(OC)c(OC)c(OC)c3)c2)CN(C)C)c1)c1cc(OC)c(OC)c(OC)c1 [AP20187],0.7%,> 99%,,,
CC[C@H](C(=O)N1CCCC[C@H]1C(=O)O[C@H](CCc1ccc(OC)c(OC)c1)c1cccc(OCC(=O)NCCNC(=O)COc2cccc([C@@H](CCc3ccc(OC)c(OC)c3)OC(=O)[C@@H]3CCCCN3C(=O)[C@@H](CC)c3cc(OC)c(OC)c(OC)c3)c2)c1)c1cc(OC)c(OC)c(OC)c1 [rimiducid],,,not activated,~50%,induced significant removal

# — patent US20230065562A1, “DUAL CONTROLS FOR THERAPEUTIC CELL ACTIVATION OR ELIMINATION” (Bellicum Pharmaceuticals, Inc., priority 2015, published 2023)
